In US9376440B2, “Pyrrolobenzodiazepines as antiproliferative agents” (MEDIMMUNE LIMITED, priority 2012, dated 2016):

Legend:
[1] = tested on: MDA MB 231 breast cancer xenograft; experiment: ER-negative MDA MB 231 breast cancer xenograft study; type: in vivo, mouse; conditions: for in vivo antitumour activity compared to control mice: female MF1 nude mice
Experimental: In vivo studies of the activity of 16f were carried out in an ER-negative MDA MB 231 breast cancer xenograft in a mouse model. The human breast cancer cell line MDA-MB-231 (5×10^8 cells) was employed to establish xenografts in the flanks of female MF1 nude mice, 2-3 months old and weighing 20-25 g. Subsequent passaging was by the subcutaneous implantation of small tumour pieces (approx 1 mm^3) into the flank. When the tumours reached approx. 0.06 cm^3 (three weeks post implantation) they were divided into 3 groups of 4 mice. The drug treated groups were administered with an IV dose (in DMSO) of either 250 μg/Kg/day or 300 μg/Kg/day for 5 consecutive days followed by two drug free days for 3 weeks, followed by 2 consecutive days in week 4 at which point the dosage was stopped.

A549 (lung) = experiment: MTT cytotoxicity assay, A549; type: cell-based; conditions: Homo sapiens, A549, 96 h, read-out: IC50 (nM) A549
Experimental: (§1) The cytotoxicity potential of the compounds of the invention 16c-h was compared with the comparative compounds 16a, 16b and GWL-78 in a number of tumour cell lines and the non-cancer cell line WI38 after 96 hours exposure using the MTT (3-(4,5-Dimethylthiazol-2-yl)-2,5-diphenyltetrazolium bromide) colorimetric assay, as described below.
(§2) A panel of several types of human cancer cell lines including epidermoid (A431), lung (A549), ovarian (A2780) and breast (MCF7 and MDAMB-231), as well as the non-tumour cell line WI38, were used to determine the cytotoxicity of the compounds. The cells were grown in normal conditions at 37° C. under a 5% CO2 humidified atmosphere, either in Dulbecco's Modified Eagle Medium or Modified Eagle Medium (depending on the cell line), supplemented with 10% fetal bovine serum (Biosera, UK), 1% L-glutamine, 1% non-essential amino acids and 0.05% hydrocortisone (Gibco, Invitrogen, USA). Cells were then seeded into 96-well plates in a total volume of 160 μl, and allowed to reach a 30-40% degree of confluence before starting the experiment. The ligands were dissolved in sterilized ultrapure water at a maximum concentration of 100 μM, and serial decimal dilutions prepared. These were added to the cells in a volume of 40 μl. After 96 hours of continuous exposure to each ligand, the cytotoxicity was determined by the MTT (3-(4,5-Dimethylthiazol-2-yl)-2,5-diphenyltetrazolium bromide) (Lancaster Synthesis Ltd, UK) colorimetric assay (Skehan P, S. R., et al., Journal of the National Cancer Institute 1990, 82, 1107). Absorbance was quantified by spectrophotometry at A=570 nm (ELx808, Bio-Tek Instruments, Inc., USA). IC50 values were calculated by a dose-response analysis using the Origin 6.0™ software.

WI38 = experiment: MTT cytotoxicity assay, non-tumour cell line WI38; type: cell-based; conditions: Homo sapiens, WI-38, 96 h, read-out: IC50 (nM) WI38
Experimental: as §1, §2

NF-κB = experiment: Transcription Factor Activation Profiling Array Assay (Signosis), HeLa; type: cell-based; conditions: 10 nM, 4 hours
Experimental: (§3) 16f was evaluated in a commercial Transcription Factor Activation Profiling Array Assay™ (Signosis) using the HeLa cell line. In this assay the activities of 48 transcription factors could be monitored simultaneously using a collection of biotin-labeled DNA probes based on the consensus sequences of individual transcription factor DNA-binding sites. […] The activity of NF-κB was reduced by almost 50%.

NFAT = experiment: as above; type: cell-based; conditions: 10 nM, 4 hours
Experimental: as §3

EGR = experiment: as above; type: cell-based; conditions: 10 nM, 4 hours
Experimental: as §3

SMAD = experiment: as above; type: cell-based; conditions: 10 nM, 4 hours
Experimental: as §3

OCT-4 = experiment: as above; type: cell-based; conditions: 10 nM, 4 hours
Experimental: as §3

primary CLL cells = experiment: Annexin V/propidium iodide flow cytometry assay in primary CLL cells; type: cell-based; conditions: CLL cell
Experimental: The cytotoxicity potential of the compounds of the invention 16c-h was also compared with the comparative compounds 16a, 16b and GWL-78 in a primary CLL cell lines using the Annexin V assay (van Engeland, M, et al., Cytometry 1998, 31, 1-9), as described below.
Freshly isolated peripheral blood CLL cells (1×10^8 mL^−1) were cultured in RPMI medium (Invitrogen, Paisley, U.K.) supplemented with 100 U/mL penicillin, […] streptomycin, and 10% fetal calf serum. The cells were incubated at 37° C. in a humidified 5% CO2 atmosphere in the presence of each compound. All compounds were dissolved in DMSO and were evaluated in serial dilutions against the primary CLL cells. In addition, control cultures were carried out to which no drug was added. The cytotoxic effects of the compounds were quantified using an annexin V/propidium iodide flow cytometry assay (Bender Medsystems, Vienna, Austria). All assays were performed in duplicate, and LD50 values were calculated from sigmoidal dose-response curves using the Prism 6.0 software (Graphpad Software Inc., San Diego, Calif.). The sigmoidal dose-response curves were derived by plotting log [compound concentration] against the percentage apoptosis induced by that concentration. A wide range of concentrations were used to establish the biologically active range for each individual compound.

Mia Paca 2 = experiment: MTT cytotoxicity assay, Mia Paca 2; type: cell-based; conditions: Homo sapiens, MIA PaCa-2, 96 h, read-out: IC50 (nM) Mia Paca 2
Experimental: as §1, §2

phosphorylated IκBα = experiment: Western Blotting in CLL cells, surrogate for NF-κB activity; type: cell-based; conditions: 24 hours incubation, concentrations down to 0.1 nM
Source text: (§4) Based on the hypothesis that 16f may down-regulate the expression of NF-κB-dependent genes (e.g., IκB, BCL2, BCLXL) by binding to the cognate DNA sequence of NF-κB, thereby blocking interaction of the transcription factor protein and inhibiting transcription of a number of genes, it was decided to explore this possibility in CLL cells in which NF-κB signaling is known to be active and closely correlates with the initiation and progression of malignancy.

phosphorylated-p65 = experiment: as above; type: cell-based; conditions: 24 hours incubation
Source text: as §4

A2780 (ovarian) = experiment: MTT cytotoxicity assay, A2780; type: cell-based; conditions: Homo sapiens, A2780, 96 h, read-out: IC50 (nM) A2780
Experimental: as §1, §2

[2] = MTD (maximum tolerated dose) study, intraperitoneal dosing; type: in vivo, mouse
Experimental: Initially a small scale study was carried out to determine the MTD (maximum tolerated dose) in Swiss-Webster mice using intraperitoneal dosing (IP). […] As 16f provided a marginally better toxicity profile in the MTD study, it was decided to carry out more extensive in vivo tumour xenograft studies on this molecule.

[3] = tested on: Mia Paca 2 pancreatic cancer xenograft; experiment: Mia Paca 2 pancreatic cancer xenograft in mouse model; type: in vivo
Experimental: (§5) An in vivo study of 16f was carried out in a pancreatic cancer xenograft mouse model, in a similar manner to the above. The drug (16f) treated group was administered an IV dose of 300 μg/Kg/day for 5 consecutive days followed by 2 drug free days, and the cycle was continued for 3 weeks.

A431 (epidermoid) = experiment: MTT cytotoxicity assay, A431; type: cell-based; conditions: Homo sapiens, A-431, 96 h, read-out: IC50 (nM) A431
Experimental: as §1, §2

NFκB = experiment: Immunohistochemical staining of xenograft tumour cross-sections; type: in vivo, mouse; conditions: treated vs controls
Experimental: as §5

Compound: COC(=O)c1cc(-c2ccc(NC(=O)c3nc(NC(=O)CCCOc4cc5c(cc4OC)C(=O)N4CCC[C@H]4C=N5)cn3C)cc2)cn1C [Compound 16f, (S)-methyl 4-(4-(4-(4-(7-methoxy-5-oxo-2,3,5,11a-tetrahydro-1H-pyrrolo[2,1-c][1,4]benzodiazepine-8-yloxy)butanamido)-1-methyl-1H-imidazole-2-carboxamido)phenyl)-1-methyl-1H-pyrrole-2-carboxylate]
- tumour re-growth after last IV dose ([1]; 300 μg/Kg dose level, up to 3 weeks after last dose): did not re-grow
- in vivo antitumour activity compared to control mice ([1]; IV 250 μg/Kg/day): prominent in vivo antitumour activity
- in vivo antitumour activity compared to control mice ([1]; IV 300 μg/Kg/day): prominent in vivo antitumour activity
- signs of toxicity ([1]; IV 250 and 300 μg/Kg dose levels): without any signs of toxicity
- IC50 (A549 (lung)): 0.034 nM
- IC50 (WI38): 129 nM
- reduction of NF-κB activity (NF-κB; specific value): ~50%
- down-regulation of NF-κB activity (NF-κB; top five, at least): at least 30%
- down-regulation of NFAT activity (NFAT): at least 30%
- down-regulation of EGR activity (EGR): at least 30%
- down-regulation of SMAD activity (SMAD): at least 30%
- down-regulation of OCT-4 activity (OCT-4): at least 30%
- IC50 (primary CLL cells): 0.17 nM
- IC50 (Mia Paca 2): 0.0021 nM
- suppression of phosphorylated IκBα (phosphorylated IκBα): significant suppression
- effect on phosphorylated-p65 (phosphorylated-p65): only a marginal effect
- IC50 (A2780 (ovarian)): 0.021 nM
- weight loss ([2]; Swiss-Webster mice, IP, 400 μg/Kg/day): insignificant weight loss
- weight loss or other signs of toxicity ([2]; repeat MTD experiment, 350 μg/Kg/day): did not show any weight loss or other signs of toxicity
- tumour growth after last administered dose ([3]; 300 μg/Kg, up to 21 days after last dose): no growth was observed
- signs of toxicity ([3]; IV 300 μg/Kg dose level): without any signs of toxicity
- antitumour activity compared to control mice ([3]; IV 300 μg/Kg/day, 5 days on/2 days off, 3 weeks): prominent antitumour activity
- IC50 (A431 (epidermoid)): 0.018 nM
- immunohistochemical staining findings (NFκB): consistent with NFκB inhibition
